Data as given in PubChem BioAssay (NCI).
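Five concentrations, 48 hours, 96-well plates. Definition used: TGI = concentration required for complete inhibition of growth.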

Tests used:
Assay in all cases: NCI-60 cell line screen, 48 h
[1] = test system: PC-3 prostate
[2] = test system: T-47D breast
[3] = test system: MDA-MB-231 breast
[4] = test system: MDA-N
[5] = test system: COLO 205 colon
[6] = test system: SR leukemia
[7] = test system: SK-MEL-28 melanoma
[8] = test system: HOP-62 NSCLC
[9] = test system: SNB-19 CNS
[10] = test system: UACC-257 melanoma
[11] = test system: U251 CNS
[12] = test system: SF-268 CNS
[13] = test system: RPMI-8226 leukemia
[14] = test system: SNB-75 CNS
[15] = test system: IGROV1 ovarian
[16] = test system: BT-549 breast
[17] = test system: SW-620 colon
[18] = test system: NCI/ADR-RES ovarian
[19] = test system: MDA-MB-435
[20] = test system: NCI-H460 lung
[21] = test system: DU-145 prostate
[22] = test system: OVCAR-5 ovarian
[23] = test system: KM12 colon
[24] = test system: SF-295 CNS
[25] = test system: MCF7 breast
[26] = test system: HS 578T breast
[27] = test system: EKVX NSCLC
[28] = test system: ACHN renal
[29] = test system: SK-OV-3 ovarian
[30] = test system: HCT-15 colon
[31] = test system: A549 NSCLC
[32] = test system: OVCAR-4 ovarian
[33] = test system: LOX IMVI melanoma
[34] = test system: CCRF-CEM leukemia
[35] = test system: M14 melanoma
[36] = test system: NCI-H226 lung
[37] = test system: SF-539 CNS
[38] = test system: HCT-116 colon
[39] = test system: SK-MEL-5 melanoma
[40] = test system: A498 renal
[41] = test system: OVCAR-3 ovarian
[42] = test system: MALME-3M melanoma
[43] = test system: NCI-H23 lung
[44] = test system: K-562 leukemia
[45] = test system: CAKI-1 renal
[46] = test system: UO-31 renal
[47] = test system: HL-60(TB) leukemia
[48] = test system: 786-0 renal
[49] = test system: MOLT-4 leukemia
[50] = test system: HOP-92 NSCLC
[51] = test system: OVCAR-8 ovarian
[52] = test system: UACC-62 melanoma
[53] = test system: TK-10 renal
[54] = test system: NCI-H522 lung
[55] = test system: SK-MEL-2 melanoma
[56] = test system: SN12C renal
[57] = test system: RXF 393 renal
[58] = test system: HT29 colon
[59] = test system: HCC-2998 colon

`O=c1cc(-c2ccccc2)oc2c1ccc1[nH]c3ccccc3c(=O)c12` showed a TGI [1] greater than 100 µM, a TGI [2] greater than 100 µM and a TGI [3] greater than 100 µM. The TGI [4] was greater than 100 µM, the TGI [5] was greater than 100 µM and the TGI [6] was greater than 100 µM. For the same compound, the TGI [7] was greater than 100 µM, the TGI [8] was greater than 100 µM and the TGI [9] was greater than 100 µM. It also gave a TGI [10] greater than 100 µM, a TGI [11] greater than 100 µM and a TGI [12] greater than 100 µM. The TGI [13] was greater than 100 µM, the TGI [14] was greater than 100 µM and the TGI [15] was greater than 100 µM. For the same compound, the TGI [16] was greater than 100 µM, the TGI [17] was greater than 100 µM and the TGI [18] was greater than 100 µM. The TGI [19] was greater than 100 µM, the TGI [20] was 36.9 µM and the TGI [21] was greater than 100 µM. It also gave a TGI [22] greater than 100 µM, a TGI [23] greater than 100 µM and a TGI [24] greater than 100 µM. The TGI [25] was greater than 100 µM, the TGI [26] was greater than 100 µM and the TGI [27] was greater than 100 µM. The TGI [28] was greater than 100 µM, the TGI [29] was greater than 100 µM and the TGI [30] was greater than 100 µM. It also gave a TGI [31] greater than 100 µM, a TGI [32] greater than 100 µM and a TGI [33] of 34.9 µM. It also gave a TGI [34] greater than 100 µM, a TGI [35] greater than 100 µM and a TGI [36] greater than 100 µM. For the same compound, the TGI [37] was greater than 100 µM, the TGI [38] was greater than 100 µM and the TGI [39] was greater than 100 µM. For the same compound, the TGI [40] was greater than 100 µM, the TGI [41] was greater than 100 µM and the TGI [42] was greater than 100 µM. It also gave a TGI [43] greater than 100 µM, a TGI [44] greater than 100 µM and a TGI [45] greater than 100 µM. It also gave a TGI [46] greater than 100 µM, a TGI [47] greater than 100 µM and a TGI [48] greater than 100 µM. It also gave a TGI [49] greater than 100 µM, a TGI [50] greater than 100 µM and a TGI [51] greater than 100 µM. The TGI [52] was greater than 100 µM, the TGI [53] was greater than 100 µM and the TGI [54] was greater than 100 µM. It also gave a TGI [55] greater than 100 µM, a TGI [56] greater than 100 µM and a TGI [57] greater than 100 µM. It also gave a TGI [58] greater than 100 µM and a TGI [59] greater than 100 µM.
Compound `NC(N)=NC(N)=Nc1ccc(C(=O)O)cc1` has a TGI [1] greater than 100 µM, a TGI [2] greater than 100 µM and a TGI [3] greater than 100 µM. It also gave a TGI [4] greater than 100 µM, a TGI [5] greater than 100 µM and a TGI [6] greater than 100 µM. For the same compound, the TGI [7] was greater than 100 µM, the TGI [8] was greater than 100 µM and the TGI [9] was greater than 100 µM. The TGI [10] was greater than 100 µM, the TGI [11] was greater than 100 µM and the TGI [12] was greater than 100 µM. It also gave a TGI [13] greater than 100 µM, a TGI [14] greater than 100 µM and a TGI [15] greater than 100 µM. The TGI [16] was greater than 100 µM, the TGI [17] was greater than 100 µM and the TGI [18] was greater than 100 µM. For the same compound, the TGI [19] was greater than 100 µM, the TGI [20] was greater than 100 µM and the TGI [21] was greater than 100 µM. It also gave a TGI [22] greater than 100 µM, a TGI [23] greater than 100 µM and a TGI [24] greater than 100 µM. The TGI [25] was greater than 100 µM, the TGI [26] was greater than 100 µM and the TGI [27] was greater than 100 µM. The TGI [28] was greater than 100 µM, the TGI [29] was greater than 100 µM and the TGI [30] was greater than 100 µM. The TGI [31] was greater than 100 µM, the TGI [32] was greater than 100 µM and the TGI [33] was greater than 100 µM. It also gave a TGI [34] greater than 100 µM, a TGI [35] greater than 100 µM and a TGI [36] greater than 100 µM. For the same compound, the TGI [37] was greater than 100 µM, the TGI [38] was greater than 100 µM and the TGI [39] was greater than 100 µM. It also gave a TGI [40] greater than 100 µM, a TGI [41] greater than 100 µM and a TGI [42] greater than 100 µM. The TGI [43] was greater than 100 µM, the TGI [44] was greater than 100 µM and the TGI [45] was greater than 100 µM. The TGI [46] was greater than 100 µM, the TGI [47] was greater than 100 µM and the TGI [48] was greater than 100 µM. The TGI [49] was greater than 100 µM, the TGI [50] was greater than 100 µM and the TGI [51] was greater than 100 µM. The TGI [52] was greater than 100 µM, the TGI [53] was greater than 100 µM and the TGI [54] was greater than 100 µM. For the same compound, the TGI [55] was greater than 100 µM, the TGI [56] was greater than 100 µM and the TGI [57] was greater than 100 µM. The TGI [58] was greater than 100 µM and the TGI [59] was greater than 100 µM.
`CC(OP(=O)(O)O)C(N)C(=O)O` (stereo unspecified) was tested, and the TGI [1] was greater than 100 µM, the TGI [2] was greater than 100 µM and the TGI [3] was greater than 100 µM. It also gave a TGI [4] greater than 100 µM, a TGI [5] greater than 100 µM and a TGI [6] greater than 100 µM. It also gave a TGI [7] greater than 100 µM, a TGI [8] greater than 100 µM and a TGI [9] greater than 100 µM. The TGI [10] was greater than 100 µM, the TGI [11] was greater than 100 µM and the TGI [12] was greater than 100 µM. The TGI [13] was greater than 100 µM, the TGI [14] was greater than 100 µM and the TGI [15] was greater than 100 µM. For the same compound, the TGI [16] was greater than 100 µM, the TGI [17] was greater than 100 µM and the TGI [18] was greater than 100 µM. For the same compound, the TGI [19] was greater than 100 µM, the TGI [20] was greater than 100 µM and the TGI [21] was greater than 100 µM. The TGI [22] was greater than 100 µM, the TGI [23] was greater than 100 µM and the TGI [24] was greater than 100 µM. It also gave a TGI [25] greater than 100 µM, a TGI [26] greater than 100 µM and a TGI [27] greater than 100 µM. For the same compound, the TGI [28] was greater than 100 µM, the TGI [29] was greater than 100 µM and the TGI [30] was greater than 100 µM. It also gave a TGI [31] greater than 100 µM, a TGI [32] greater than 100 µM and a TGI [33] greater than 100 µM. It also gave a TGI [34] greater than 100 µM, a TGI [35] greater than 100 µM and a TGI [36] greater than 100 µM. The TGI [37] was greater than 100 µM, the TGI [38] was greater than 100 µM and the TGI [39] was greater than 100 µM. The TGI [40] was greater than 100 µM, the TGI [41] was greater than 100 µM and the TGI [42] was greater than 100 µM. The TGI [43] was greater than 100 µM, the TGI [44] was greater than 100 µM and the TGI [45] was greater than 100 µM. For the same compound, the TGI [46] was greater than 100 µM, the TGI [47] was greater than 100 µM and the TGI [48] was greater than 100 µM. The TGI [49] was greater than 100 µM, the TGI [50] was greater than 100 µM and the TGI [51] was greater than 100 µM. It also gave a TGI [52] greater than 100 µM, a TGI [53] greater than 100 µM and a TGI [54] greater than 100 µM. The TGI [55] was greater than 100 µM, the TGI [56] was greater than 100 µM and the TGI [57] was greater than 100 µM. The TGI [58] was greater than 100 µM and the TGI [59] was greater than 100 µM.
Compound `CC(C)(C)c1cc(OCc2nnc3sc(Cc4ccccc4)nn23)c(Cl)cc1OCc1nnc2sc(Cc3ccccc3)nn12` has a TGI [1] greater than 100 µM, a TGI [2] of 38.5 µM and a TGI [3] of 39 µM. The TGI [4] was greater than 100 µM, the TGI [5] was greater than 100 µM and the TGI [6] was 70.6 µM. It also gave a TGI [7] greater than 100 µM, a TGI [8] greater than 100 µM and a TGI [9] greater than 100 µM. It also gave a TGI [10] of 63.5 µM, a TGI [11] of 34.6 µM and a TGI [12] greater than 100 µM. It also gave a TGI [13] greater than 100 µM, a TGI [14] of 84.8 µM and a TGI [15] of 52.4 µM. For the same compound, the TGI [16] was 96.9 µM, the TGI [17] was greater than 100 µM and the TGI [18] was greater than 100 µM. The TGI [19] was 82.9 µM, the TGI [20] was 42.5 µM and the TGI [21] was greater than 100 µM. The TGI [22] was greater than 100 µM, the TGI [23] was 57.2 µM and the TGI [24] was greater than 100 µM. For the same compound, the TGI [25] was 37.2 µM, the TGI [26] was greater than 100 µM and the TGI [27] was greater than 100 µM. The TGI [28] was 68 µM, the TGI [29] was greater than 100 µM and the TGI [30] was greater than 100 µM. It also gave a TGI [31] greater than 100 µM, a TGI [32] greater than 100 µM and a TGI [33] greater than 100 µM. It also gave a TGI [34] of 8.97 µM, a TGI [35] of 88 µM and a TGI [36] greater than 100 µM. For the same compound, the TGI [37] was greater than 100 µM, the TGI [38] was 75.2 µM and the TGI [39] was 31.7 µM. It also gave a TGI [40] of 67.2 µM, a TGI [41] greater than 100 µM and a TGI [42] greater than 100 µM. It also gave a TGI [43] greater than 100 µM, a TGI [44] greater than 100 µM and a TGI [45] greater than 100 µM. The TGI [46] was greater than 100 µM, the TGI [47] was 58.3 µM and the TGI [48] was 46.7 µM. The TGI [49] was greater than 100 µM, the TGI [50] was 35.4 µM and the TGI [51] was 73.6 µM. For the same compound, the TGI [52] was 49.8 µM, the TGI [53] was 82.9 µM and the TGI [54] was greater than 100 µM. For the same compound, the TGI [55] was greater than 100 µM, the TGI [56] was greater than 100 µM and the TGI [57] was 38.8 µM. It also gave a TGI [58] of 57.8 µM and a TGI [59] of 20.9 µM.
